Laboratory results taken from PMC10534827 (Pharmaceuticals, 2023).

Key:
[1] = system: Neuro-2a cells; experiment: MTT cytotoxicity, Neuro-2a; assay type: cell-based, murine; details: Mus musculus, N2a; MTT, 72 h exposure; read-out: Neuro-2a IC50
[2] = target: T1, Acetylcholinesterase from Electrophorus electricus (Electrophorus electricus, UniProt O42275); experiment: biochemical; assay type: biochemical
T1 construct: purchased Sigma-Aldrich, Hamburg, Germany
Experimental: (§1) AChE and BChE inhibitory activity was measured using the microplate assay described by Ellman et al. [68] with the modifications added by López et al. [36]. The compounds were tested at concentrations between 10^−3 and 10^−8 M. First, all compounds were dissolved in 1% DMSO in a concentration of 1 mg/mL.
(§2) Incubation of the plates was performed at room temperature for 30 min. Then, 100 μL of substrate solution were added to start the enzymatic reaction. […] Enzyme activity was calculated as an inhibition percentage compared to an assay including buffer instead of an inhibitor. […] All data were analyzed with the software package Prism 3 (Graph Pad Inc., San Diego, CA, USA).

[3] = DPPH radical scavenging activity; details: 300 μL of 5 mM compound in MeOH, 30 min, 517 nm
Experimental: The DPPH (2,2-diphenyl-1-picryl-hydrazyl-hydrate) free radical scavenging activity method is based on the neutralization of the DPPH radical by an antioxidant.
Free radical scavenging activity was measured using DPPH method [69, 70] with slight modification. Here, 300 μL of 5 mM solutions of tested compounds in MeOH were added to 2 mL methanolic solution of DPPH (2 mg/mL). […] Results were evaluated as percentage scavenging of radical:DPPH radical scavenging activity (%) = ((Abscontr. − Abssample)/Abscontr.) ×100, where Abscontr. is the absorbance of DPPH radical with 300 μL MeOH, Abssample is the absorbance of DPPH radical solution mixed with sample. BHT was used as positive control.

[4] = ABTS radical scavenging assay; details: 734 nm after 5 min
Experimental: These compounds were also tested for their antioxidant activities by using the ABTS [2,2′-azinobis (3-ethylbenzothiazoline-6-sulfonic acid)] cation radical decolorization method (Table 4). The BHT [41] was used for comparison. The ABTS cation radical is produced by oxidation of the ABTS molecule with strong oxidizing agents, such as potassium persulfate in water.
For ABTS assay, the procedure followed the method of Arnao et al. [71] with some modifications. […] The working solution was then prepared by mixing the two stock solutions in equal quantities and allowing them to react for 14 h at room temperature in the dark. […] A fresh ABTS solution was prepared for each assay. […] The ABTS scavenging capacity of the compound was calculated as follows:ABTS radical scavenging activity (%) = ((Abscontr. − Abssample)/Abscontr.) ×100, where Abscontr. is the absorbance of DPPH radical with 300 μL MeOH, Abssample is the absorbance of DPPH radical solution mixed with the sample. […] BHT was used as positive control.

[5] = Lipid peroxidation in linoleic acid system, FTC method; details: 10 mM compound, 500 nm
Experimental: The antioxidant activity of studied compounds against lipid peroxidation was measured through ammonium thiocyanate assay as described by Takao et al. [66] with some modifications. […] A 10 μL aliquot of the reaction solution was then added to 200 μL of 70% (v/v) ethanol and 10 μL of 30% (w/v) ammonium thiocyanate. […] Aliquots were assayed every 24 h until the day after the absorbance of the control solution (without compound) reached maximum value. BHT (10 mM) was used as positive control.

[6] = target: T2, butyrylcholinesterase from equine serum (Equus caballus, UniProt P81908); experiment: biochemical
T2 construct: butyrylcholinesterase from equine serum; purchased Sigma-Aldrich, Hamburg, Germany; host or cells: equine serum
Experimental: as §1, §2

[7] = Ferric reducing antioxidant power (FRAP); details: 150 μL of 5 mM compound, 30 min, 593 nm, Trolox equivalent
[8] = system: SH-SY5Y cells; experiment: MTT cytotoxicity, SH-SY5Y; assay type: cell-based, human; details: Homo sapiens, SH-SY5Y; MTT, 72 h exposure; read-out: SH-SY5Y IC50
[9] = system: CCL-1 cells; experiment: MTT cytotoxicity, CCL-1 normal fibroblasts; assay type: cell-based, murine; details: Mus musculus, Fibroblast; MTT, 72 h exposure; read-out: CCL-1 IC50
[10] = PAMPA-BBB permeability; assay type: in vitro ADME; details: experimentally measured BBB permeability
Text: At the same time, they needed to fulfill the requirement for good BBB permeation in order to achieve sufficient brain exposure. Although transport across the BBB is quite a complex phenomenon, passive diffusion is still the primary route for exogenous substances to access that target. So, the selected compounds were subjected to an in vitro PAMPA-BBB assay, relying on the capacity of the method in distinguishing the candidates with good BBB passive permeabilities. […].
The blood–brain barrier permeabilities were measured by PAMPA Permeability Analyzer (pIONInc, Billerica, MA, USA). The tested compounds and reference standards were prepared as 10 mM stock solutions in DMSO and further diluted in Prisma HT buffer pH 7.4. The experiment followed the BBB Protocol: 200 μL sample’s aliquots in the donor compartment, Brain Sink Buffer aliquots (200 μL) in the acceptor wells, BBB-1 lipid for coating the permeation membranes, “sandwich” assembly with the acceptor plate on top of the donor one, and incubation at temperature 25 °C for 4 h under humidity control without stirring. For permeability assessment, UV spectra of the blank, reference, donor, and acceptor plates were collected at wavelength 250–500 nm. […]. Samples were analyzed in triplicate and average values were reported. […]. Theophylline, corticosterone, and propranolol HCl were used as reference standards to control the quality and consistency of the BBB permeability experiment.

T1 sequence (O42275 24-633): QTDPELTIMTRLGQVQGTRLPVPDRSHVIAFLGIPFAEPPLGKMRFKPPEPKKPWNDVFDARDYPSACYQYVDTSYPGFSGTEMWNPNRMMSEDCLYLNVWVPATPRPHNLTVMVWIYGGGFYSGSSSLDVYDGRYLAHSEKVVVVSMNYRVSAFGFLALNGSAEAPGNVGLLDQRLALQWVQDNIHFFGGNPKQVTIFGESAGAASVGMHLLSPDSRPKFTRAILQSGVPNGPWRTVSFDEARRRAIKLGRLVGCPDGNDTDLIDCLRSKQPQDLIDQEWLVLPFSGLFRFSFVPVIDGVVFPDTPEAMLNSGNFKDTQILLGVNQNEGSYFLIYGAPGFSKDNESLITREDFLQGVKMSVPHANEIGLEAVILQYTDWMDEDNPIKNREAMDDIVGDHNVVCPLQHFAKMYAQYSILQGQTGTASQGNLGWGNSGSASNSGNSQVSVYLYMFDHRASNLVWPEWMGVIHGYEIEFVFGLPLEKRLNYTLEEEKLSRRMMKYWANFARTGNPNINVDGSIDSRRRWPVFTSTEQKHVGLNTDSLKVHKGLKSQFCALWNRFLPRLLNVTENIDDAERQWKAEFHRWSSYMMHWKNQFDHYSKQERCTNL
T2 sequence (P81908 whole entry): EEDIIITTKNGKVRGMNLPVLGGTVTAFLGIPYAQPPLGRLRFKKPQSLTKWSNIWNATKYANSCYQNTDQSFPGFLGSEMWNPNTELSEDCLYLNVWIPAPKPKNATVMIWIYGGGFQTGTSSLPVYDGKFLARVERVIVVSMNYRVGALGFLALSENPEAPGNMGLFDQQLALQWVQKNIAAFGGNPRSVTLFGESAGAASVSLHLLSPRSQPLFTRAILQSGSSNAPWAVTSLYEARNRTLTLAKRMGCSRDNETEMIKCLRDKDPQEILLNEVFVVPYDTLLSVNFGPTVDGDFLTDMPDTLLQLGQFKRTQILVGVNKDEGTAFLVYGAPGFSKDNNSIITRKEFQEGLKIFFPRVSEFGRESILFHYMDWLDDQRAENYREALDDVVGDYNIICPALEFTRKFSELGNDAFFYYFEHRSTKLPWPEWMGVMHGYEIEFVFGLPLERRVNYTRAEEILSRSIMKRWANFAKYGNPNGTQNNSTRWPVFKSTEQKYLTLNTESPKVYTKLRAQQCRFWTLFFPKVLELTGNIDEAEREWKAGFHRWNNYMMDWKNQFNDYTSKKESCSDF

In the case of O=C(N/N=C/C1CCN(Cc2ccccc2)CC1)c1c[nH]c2ccccc12 [3c, N’-[(E)-(1-benzylpiperidin-4-yl)methylidene]-1H-indole-3-carbohydrazide], the IC50 [1] is reported as over 300 µM, the inhibition at 1000 µM ([2]; 1 mM solution of the tested compound, read-out: Activity [%] (inhibition percentage of AChE)) is reported as 72% and the “SI AChE” value ([2]; IC50(BChE)/IC50(AChE)) is reported as 2.45. The IC50 ([2]; mean ± SD of three experiments, read-out: AChE IC50) was 10.8 ± 1.66 µM, the “DPPH Activity” value [3] was 30.05 ± 0.55% and the “ABTS Activity” value [4] was 36.69 ± 0.70%. The IC50 [4] was over 5000 µM, the “Absorbance Day 1” value ([5]; Day 1) was 0.89 ± 0.07 and the “Absorbance Day 2” value ([5]; Day 2) was 0.87 ± 0.02. For the same molecule, the “Absorbance Day 3” value ([5]; Day 3) was 0.85 ± 0.05, the “Absorbance Day 4” value ([5]; Day 4) was 0.85 ± 0.07 and the “Absorbance Day 5” value ([5]; Day 5) was 0.74 ± 0.05. It also gave an inhibition at 1000 µM ([6]; 1 mM solution of the tested compound, read-out: Activity [%] (inhibition percentage of BChE)) of 77%, an IC50 ([6]; mean ± SD of three experiments, read-out: BChE IC50) of 26.3 ± 3.11 µM and an FRAP [7] of 38.97 ± 3.58 μMTE. For the same molecule, the IC50 [8] was 97.3 µM, the IC50 [9] was 168 ± 10.4 µM and the “PAMPA BBB −logPe” value [10] was 4.466.
